Reference: patent US9862686B2, “N1-sulfonyl-5-fluoropyrimidinone derivatives” (Adama Makhteshim Ltd., priority 2009, dated 2018)
Like-named read-outs stand apart in the source and are kept apart here.

Tests used:
[1] = tested on: Mycosphaerella graminicola; Anamorph: Septoria tritici; Bayer Code SEPTTR; assay: Fungicidal activity: leaf blotch of wheat, protectant and curative treatment of inoculated wheat plants; type: in vivo; settings: Zymoseptoria tritici
Description: Evaluation of Fungicidal Activity: Leaf Blotch of Wheat (Mycosphaerella graminicola; Anamorph: Septoria tritici; Bayer Code SEPTTR)
Wheat plants (variety Yuma) were grown from seed in a greenhouse in 50% mineral soil/50% soil-less Metro mix until the first leaf was fully emerged, with 7-10 seedlings per pot. These plants were inoculated with an aqueous spore suspension of Septoria tritici either prior to or after fungicide treatments. After inoculation the plants were kept in 100% relative humidity (one day in a dark dew chamber followed by two to three days in a lighted dew chamber) to permit spores to germinate and infect the leaf. The plants were then transferred to a greenhouse for disease to develop.
The following table presents the activity of typical compounds of the present disclosure when evaluated in these experiments. The effectiveness of the test compounds in controlling disease was determined by assessing the severity of disease on treated plants, then converting the severity to percent control based on the level of disease on untreated, inoculated plants.
In each case of Table II the rating scale is as follows: […]

[2] = 24 h, read-out: SEPTTR 100 PPM 1DP (% Disease Control rating)
[3] = 72 h, read-out: SEPTTR 100 PPM 3DC (% Disease Control rating)

Row | SMILES | pest or weed control at 100 ppm ([1]; 24 h, One-Day Protectant (1DP), 100 ppm, wheat plants (variety Yuma), percent control vs untreated inoculated plants, read-out: SEPTTR 100 PPM 1DP (% Disease Control rating)) [%] | pest or weed control at 100 ppm ([1]; 72 h, Three-Day Curative (3DC), 100 ppm, wheat plants (variety Yuma), percent control vs untreated inoculated plants, read-out: SEPTTR 100 PPM 3DC (% Disease Control rating)) [%] | melting point [°C] | pest or weed control at 100 ppm [1, 2] [%] | pest or weed control at 100 ppm [1, 3] [%]
1 | O=c1nc(NC(=S)Nc2ccccc2)c(F)cn1S(=O)(=O)c1cccs1 [Cmpd 46] | 0 to 25 | 26 to 50 | 182 to 185 |  | 
2 | O=C(Nc1nc(=O)n(S(=O)(=O)c2ccccc2)cc1F)Oc1ccccc1 [Cmpd 47, (1-benzenesulfonyl-5-fluoro-2-oxo-1,2-dihydropyrimidin-4-yl)carbamic acid phenyl ester] |  |  | 182 to 185 | 51 to 75 | 76 to 100
3 | COc1ccc(S(=O)(=O)n2cc(F)c(NC(=O)Oc3ccccc3)nc2=O)cc1 [Cmpd 49] |  |  | 138 to 142 | 0 to 25 | 76 to 100
4 | O=C(Nc1nc(=O)n(S(=O)(=O)c2c(Cl)cccc2Cl)cc1F)Oc1ccccc1 [Cmpd 50] |  |  | 199 to 203 | 76 to 100 | 76 to 100
